From patent publication US20200237698A1, “Viral Inhibitor” (priority 2017, published 2020)

Assays:
[1] = system: human Adenovirus Type 5 (dE1/E3) containing GFP (Ad-GFP); experiment: Ad-GFP infection of HEp2 cells evaluated by fluorescent microscope; type: cell-based; details: 10 μM, HEp2, 20 MOI, 24 hours
[2] = molecular target: EBOV fusion protein (Zaire ebolavirus, UniProt Q05320); type: cell-based, Ebola
[3] = system: all three classes of fusion proteins, including Zika, EBOV, influenza A virus (IAV), SFV, VEEV, VSV and EBV; type: cell-based; details: for fusion blocked: 10 μM
[4] = system: HCMV-GFP; experiment: HCMV-GFP infection of HFF evaluated by fluorescent microscope; type: cell-based; details: 7 days
[5] = system: HSV-1 F'; experiment: GA added to already HSV-1 infected HEp2 and 293T cells, WB detection of HSV-1 proteins; type: cell-based; details: 10 μM added 2 hours after infection at 1 MOI
[6] = system: two clinical isolates of HCMV; experiment: HCMV plaque assay in human foreskin fibroblasts; type: cell-based; details: HFF, 0-10 μM GA C15:1, 7 days
[7] = system: ZIKV (strain PRVABC59); experiment: ZIKV infection of Normal Human Astrocytes, Zika viral RNA by Taqman real-time PCR; type: cell-based, Zika virus; details: 5 μM to 20 μM, day 7
[8] = system: HSV-1 F'; experiment: HSV-1 stock pre-treated with GA, infection of HEp2 or 293T, western blotting of ICP27, ICP8, Us11; type: cell-based; details: 10 MOI stock treated 1 hour with 50 μM, diluted to 0.5 MOI / 2.5 μM; HEp2 and 293T; 5, 10 and 29 hours post-infection
[9] = system: HEp2, 293T, Human foreskin fibroblasts (HFF) and Normal Human Astrocytes (NHAs); experiment: Toxicity of GA to the tested cells; details: at the active concentration (not shown)
[10] = system: HCMV; experiment: HCMV DNA copies in infected HFF by qPCR targeting the viral polymerase gene; type: cell-based; details: 7 dpi

Sequence of EBOV fusion protein (Q05320 33-501 limits assumed): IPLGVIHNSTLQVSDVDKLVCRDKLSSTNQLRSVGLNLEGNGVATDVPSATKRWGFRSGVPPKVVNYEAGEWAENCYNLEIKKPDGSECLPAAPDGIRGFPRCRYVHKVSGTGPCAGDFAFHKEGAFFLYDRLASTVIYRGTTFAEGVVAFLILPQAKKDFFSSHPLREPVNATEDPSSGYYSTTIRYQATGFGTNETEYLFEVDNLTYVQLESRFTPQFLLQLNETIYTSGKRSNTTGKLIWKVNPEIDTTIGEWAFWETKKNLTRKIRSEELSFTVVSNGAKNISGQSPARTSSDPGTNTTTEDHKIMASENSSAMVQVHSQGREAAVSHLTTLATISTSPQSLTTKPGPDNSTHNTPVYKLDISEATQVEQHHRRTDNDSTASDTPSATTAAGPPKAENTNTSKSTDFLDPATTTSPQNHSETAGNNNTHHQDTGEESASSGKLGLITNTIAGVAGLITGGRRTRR
Sequence of EBOV fusion protein (Q05320 502-676 limits assumed): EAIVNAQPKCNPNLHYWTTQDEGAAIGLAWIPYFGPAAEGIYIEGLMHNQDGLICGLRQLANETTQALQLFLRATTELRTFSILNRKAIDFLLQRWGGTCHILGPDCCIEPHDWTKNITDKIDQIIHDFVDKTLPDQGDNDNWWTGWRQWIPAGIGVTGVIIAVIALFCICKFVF

`CCCCCCCCCCCCCc1cccc(O)c1C(=O)O` [GA C13:0, Ginkgolic acid (GA) C13:0] was tested, and the “inhibition of nonenveloped Adenovirus infection” value [1] was “did not inhibit”, the “inhibition of Ebola mediated cell-cell fusion” value [2] was “inhibition of Ebola mediated cell-cell fusion” and the fusion blocked [3] was 100%. The “effect on HCMV-GFP infection / plaque formation” value ([4]; 10 μM) was “strong inhibitory effect on HCMV infection”.
In the case of `CCCCCC/C=C\CCCCCCCc1cccc(O)c1C(=O)O` [GA C15:1, ginkgolic acid C15:1], the “HSV-1 protein synthesis in already infected cells (WB)” value [5] is reported as “inhibiting the virus from that point”, the “inhibition of nonenveloped Adenovirus infection” value [1] is reported as “did not inhibit” and the “HCMV infectivity monitored by plaquing efficiency” value [6] is reported as “inhibited HCMV infectivity”. For the same molecule, the “decrease in Zika viral RNA levels” value [7] was 80-90%, the “inhibition of Ebola mediated cell-cell fusion” value [2] was “inhibition of Ebola mediated cell-cell fusion” and the fusion blocked [3] was 100%. The “effect on HCMV-GFP infection / plaque formation” value ([4]; 10 μM) was “only single cells were infected” and the “HSV-1 infection (ICP27, ICP8, Us11 by WB)” value [8] was “complete inhibition of the virus”.
With `CCCCCC/C=C\CCCCCCCCCc1cccc(O)c1C(=O)O` [GA C17:1, Ginkgolic Acid C 17:1] the “inhibition of nonenveloped Adenovirus infection” value [1] was “did not inhibit”, the “inhibition of Ebola mediated cell-cell fusion” value [2] was “inhibition of Ebola mediated cell-cell fusion” and the fusion blocked [3] was 100%. For the same molecule, the “effect on HCMV-GFP infection / plaque formation” value ([4]; 10 μM) was “strong inhibitory effect on HCMV infection”.
`Nc1nc(O)c2ncn(COC(CO)CO)c2n1` [GCV, Ganciclovir, reference compound] was tested, and the “effect on HCMV-GFP infection / plaque formation” value ([4]; 16 μM GCV) was “very strong inhibition of the virus”.
For Ginkgolic acid [GA], the toxicity [9] was “no toxicity at the active inhibitory range”, the “fusion after GA was washed” value [3] was “fusion was restored” and the “fusion inhibition with oleic acid (OA) added together with GA” value [3] was “abolished the inhibitory effect of GA”. The “reduction of viral DNA” value ([10]; GA added 3 hours after infection) was “about 80%” and the “HCMV DNA copies, dose dependence” value ([10]; different concentrations of GA) was “reduced in a dose dependent manner”.
